# Experimental data taken from US8344008B2 (Janssen Pharmaceutica NV, priority 2007, dated 2013).
# Counter-ions that a name gives are not always drawn.
# Target: T1, recombinant human LTA4 hydrolase (rhLTA4H) (Homo sapiens, UniProt P09960)
# T1 construct: made in house; host or cells: Spodoptera frugiperda (Sf-9) cells, baculovirus (pFastBac1)
# T1 sequence (P09960 1-611): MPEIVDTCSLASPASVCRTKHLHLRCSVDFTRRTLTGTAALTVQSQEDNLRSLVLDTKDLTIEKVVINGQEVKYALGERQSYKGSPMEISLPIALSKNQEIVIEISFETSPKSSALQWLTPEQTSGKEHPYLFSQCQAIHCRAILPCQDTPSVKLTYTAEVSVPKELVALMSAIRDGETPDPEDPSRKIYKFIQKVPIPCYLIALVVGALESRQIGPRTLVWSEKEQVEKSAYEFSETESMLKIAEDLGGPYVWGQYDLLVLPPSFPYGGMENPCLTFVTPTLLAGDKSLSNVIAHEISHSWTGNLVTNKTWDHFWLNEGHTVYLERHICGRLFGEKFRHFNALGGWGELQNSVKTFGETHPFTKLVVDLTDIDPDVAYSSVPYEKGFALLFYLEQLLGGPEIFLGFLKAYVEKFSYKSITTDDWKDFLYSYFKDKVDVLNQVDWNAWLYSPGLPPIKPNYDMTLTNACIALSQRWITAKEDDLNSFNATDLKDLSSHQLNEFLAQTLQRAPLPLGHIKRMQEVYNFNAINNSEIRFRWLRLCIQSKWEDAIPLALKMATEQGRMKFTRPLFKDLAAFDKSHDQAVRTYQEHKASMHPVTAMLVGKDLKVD
# Assay: Recombinant Human LTA4 Hydrolase Assay for LTA4 Hydrolase Inhibitor Activity
# Format: biochemical
# Conditions: average of results obtained; LTB4 quantified by enzyme-linked immunoassay
# In short: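 LTB4 formation, quantified by EIA after 10 min at rt, was the read-out once 9 ng LTA4 (free acid) was added to recombinant human enzyme (36 ng, Sf-9 expressed) that had sat 10 min with compound. Buffer: 0.1 M potassium phosphate pH 7.4 with fatty-acid-free BSA; IC50 by 4-parameter fit.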
row,SMILES,Ki [nM]
1,"CC(=O)N[C@H]1C[C@H]2CC[C@@H](C1)N2Cc1ccc(Oc2nc3c(C)cccc3s2)cc1 [Example 72, meso-endo-N-{8-[4-(4-Methyl-benzothiazol-2-yloxy)-benzyl]-8-aza-bicyclo[3.2.1]oct-3-yl}-acetamide]",98
2,"CC(=O)N[C@H]1C[C@H]2CC[C@@H](C1)N2Cc1ccc(Oc2nc3ccc(C)cc3s2)cc1 [Example 73, meso-endo-N-{8-[4-(6-Methyl-benzothiazol-2-yloxy)-benzyl]-8-aza-bicyclo[3.2.1]oct-3-yl}-acetamide]",33
3,"NC(=O)N1CC2CCC(C1)N2Cc1ccc(Oc2nc3ccccc3s2)cc1F [Example 76, meso-8-[4-(Benzothiazol-2-yloxy)-2-fluoro-benzyl]-3,8-diaza-bicyclo[3.2.1]octane-3-carboxylic acid amide]",195
4,"CC(=O)N1CC2CCC(C1)N2Cc1ccc(Oc2nc3ccccc3s2)cc1F [Example 77, meso-1-{8-[4-(Benzothiazol-2-yloxy)-2-fluoro-benzyl]-3,8-diaza-bicyclo[3.2.1]oct-3-yl}-ethanone]",12
5,"O=C(CO)N1C[C@@H]2C[C@H]1CN2Cc1ccc(Oc2nc3ccccc3s2)cc1F [Example 78, (S,S)-1-{5-[4-(Benzothiazol-2-yloxy)-2-fluoro-benzyl]-2,5-diaza-bicyclo[2.2.1]hept-2-yl}-2-hydroxy-ethanone]",39
6,"CC(=O)N1C[C@@H]2C[C@H]1CN2Cc1ccc(Oc2nc3ccccc3s2)cc1F [Example 79, (S,S)-1-{5-[4-(Benzothiazol-2-yloxy)-2-fluoro-benzyl]-2,5-diaza-bicyclo[2.2.1]hept-2-yl}-ethanone]",59
7,"NC(=O)N1C[C@@H]2C[C@H]1CN2Cc1ccc(Oc2nc3ccccc3s2)cc1F [Example 80, (S,S)-5-[4-(Benzothiazol-2-yloxy)-2-fluoro-benzyl]-2,5-diaza-bicyclo[2.2.1]heptane-2-carboxylic acid amide]",60

# Results, then the compound that gave them:
row,Ki [nM],SMILES
1,240,"CC(=O)N1[C@@H]2CC[C@H]1C[C@@H](N(C)Cc1ccc(Oc3nc4ccccc4s3)cc1)C2 [Example 74, meso-endo-1-(3-{[4-(Benzothiazol-2-yloxy)-benzyl]-methyl-amino}-8-aza-bicyclo[3.2.1]oct-8-yl)-ethanone]"
2,95,"CN(Cc1ccc(Oc2nc3ccccc3s2)cc1)[C@H]1C[C@H]2CC[C@@H](C1)N2C(N)=O [Example 75, meso-endo-3-{[4-(Benzothiazol-2-yloxy)-benzyl]-methyl-amino}-8-aza-bicyclo[3.2.1]octane-8-carboxylic acid amide]"
3,162,"c1ccc2sc(Oc3ccc(CN4CC5CCNC5C4)cc3)nc2c1 (stereo not drawn) [Example 81, 2-[4-(Hexahydro-pyrrolo[3,4-b]pyrrol-5-ylmethyl)-phenoxy]-benzothiazole hydrochloride]"
4,97,"c1ccc2sc(Oc3ccc(CN4CCC5CNCC54)cc3)nc2c1 (stereo not drawn) [Example 82, 2-[4-(Hexahydro-pyrrolo[3,4-b]pyrrol-1-ylmethyl)-phenoxy]-benzothiazole hydrochloride]"
5,55,"c1ccc2sc(Oc3ccc(CN4CC5CNCC5C4)cc3)nc2c1 (stereo not drawn) [Example 83, 2-[4-(Hexahydro-pyrrolo[3,4-c]pyrrol-2-ylmethyl)-phenoxy]-benzothiazole hydrochloride]"
6,450,"c1ccc2sc(Oc3ccc(CN4CCC5CNCC5C4)cc3)nc2c1 (stereo not drawn) [Example 85, 2-[4-(Octahydro-pyrrolo[3,4-c]pyridin-5-ylmethyl)-phenoxy]-benzothiazole hydrochloride]"
7,55,"CC(=O)N1CC2CCN(Cc3ccc(Oc4nc5ccccc5s4)cc3)C2C1 (stereo not drawn) [Example 86, 1-{1-[4-(Benzothiazol-2-yloxy)-benzyl]-hexahydro-pyrrolo[3,4-b]pyrrol-5-yl}-ethanone]"
8,36,"CC(=O)N1CCC2CN(Cc3ccc(Oc4nc5ccccc5s4)cc3)CC21 (stereo not drawn) [Example 87, 1-{5-[4-(Benzothiazol-2-yloxy)-benzyl]-hexahydro-pyrrolo[3,4-b]pyrrol-1-yl}-ethanone]"
